According to patent publication US6231894A, “Treatments based on discovery that nitric oxide synthase is a paraquat diaphorase” (Duke University, priority 1999, dated 2001):

Tests used:
nitrotyrosine = experiment: Nitrotyrosine staining in macrophages; assay type: cell-based; settings: combination of paraquat and cytomix
Procedure: Western blot analysis was carried out as follows. Cells were lysed in ice-cold 50 mM Tris buffer (pH 7.4) containing 1% sodium dodecyl sulfate and protease inhibitor cocktail (Boehringer Mannheim). Protein (10 μg) was separated on a 4-20% gradient SDS-PAGE at 250 V for 30 minutes and transferred onto a nitrocellulase membrane at 30 V for 12 hours. Proteins were detected using polyclonal antibodies against human NOS3 (TransductionLaboratories; 1/1000) and nitrated keyhole limpet hemocyanin, nitrotyrosine (Upstate Biology; 1/5000). Primary antibodies were detected with a goat anti-rabbit-HRP antibody (Jackson; 1/15,000) and developed using an ECL kit (Amersham).
The RAW-264.7 monocyte macrophage cells line (TIB-71) was purchased from the American Type Culture Collection (Manassas, Va.). The cells were grown in T-75 flasks containing DMEM (Gibco-BRL, Grand Island, N.Y.) supplemented with 1 mM pyruvate, 4.5 g/L glucose and […] fetal bovine serum Macrophages were plated at 2.0×10^4 cells/well in 24-well plates and experiments were performed when cells were near confluence. […]
(§1) NOS2 was induced in RAW cells using a mixture of interferon-γ and lipopolysaccharide (LPS) referred to as "cytomix." Unstimulated (basal) and activated (cytomix) macrophages were treated with 0.1 mM paraquat or not treated with paraquat and cytotoxicity and NO production were assessed at 24 hours.

[1] = system: RAW-264.7 monocyte macrophage cells; experiment: NO production, nitrite plus nitrate, in macrophages; assay type: cell-based; settings: 0.1 mM paraquat, 24 hours
Procedure: (§2) The RAW-264.7 monocyte macrophage cells line (TIB-71) was purchased from the American Type Culture Collection (Manassas, Va.). The cells were grown in T-75 flasks containing DMEM (Gibco-BRL, Grand Island, N.Y.) supplemented with 1 mM pyruvate, 4.5 g/L glucose and […] fetal bovine serum Macrophages were plated at 2.0×10^4 cells/well in 24-well plates and experiments were performed when cells were near confluence. Macrophages were immunostimulated with 50 ng/ml lipopolysaccharide (LPS) from E. coli serotype 0111:B4 (Signia, St. Louis, Mo.) and 50 U/ml recombinant mouse interferon gamma (INF-γ, R&D Systems, Minneapolis,Minn.). Macrophages were used between passages 2-8. Cell cultures were kept in a 37° C. incubator with air and 5% carbon dioxide.
as §1
NO production, assessed by measuring the accumulation of the NO metabolites nitrite and nitrate 24 hours after cytomix treatment, is shown in FIG. 4(b). […] NOS2 expression was not affected (data not shown).
(§3) To further exclude the role of peroxynitrite, macrophages were treated with increasing concentrations of the NO-donor, DETA NONOate in the presence of 0.1 mM paraquat. Macrophage cytotoxicity and NO release were assessed 24 hours after treatments. Cell injury was assessed by measuring LDH release.

solid tumor = experiment: Working Example VII: solid tumor patient; assay type: in vivo, human; settings: IV infusion 4 milligram per kilogram, seven cycles, after 5,6 MEXAA; two weeks
Procedure: A person is given the anti-tumor agent 5,6 dimethylxanthemone-4-acetic acid (5,6 MEXAA) to treat a solid tumor identified by biopsy on the left lower extremity, and lung. […] At this time, the patient is treated with intravenous infusion of paraquat (4 milligram per kilogram) for seven cycles.

Rabbit aortic rings = experiment: Exogenous NO-induced relaxation of aortic rings; settings: 2 mM paraquat, phenylephrine 1 μM; FIG. 3(b)
Procedure: New Zealand white male rabbits weighting 3-4 kg were anaesthetized with phenobarbital (30 mg/kg/iv). The descending thoracic aorta was isolated and placed in Krebs-Henseleit buffer (pH 7.4) and stored at 4° C. until used. The vessels were cut into 5 mm rings and submerged in 25 ml double jacketed tissue baths containing Krebs-Henseleit buffer bubbled with 95% oxygen and 5% carbon dioxide at 37° C. Rings were hung on stainless steel stirrups connected to calibrated force transducers. Rings were equilibrated with 2 g resting tension for 1 hour before use and contracted with phenylephrine (1 μM). Rings were incubated with paraquat for 15 minutes before acetylcholine-induced or exogenous relaxations were performed.
In another case, rabbit aortic rings were constricted with 1 μM phenylephrine (initial contraction) and relaxed with increasing concentration of NO in the presence or absence of 2 mM paraquat. The results are shown in FIG. 3(b) where relaxations are expressed as a percent of the initial phenylephrine-induced contraction.

squamous cell carcinoma = experiment: Working Example VI: mouth squamous cell carcinoma patient; assay type: in vivo, human; settings: 5 cc swish and spit, 100 μM
Procedure: A mouth lesion is noted in a smoker during a routine dental visit. The lesion is found to be a squamous cell carcinoma. […] The patient is given a 5 cc solution of paraquat swish and spit (at a dose of 100 μM).

rat NOS1 = experiment: Anaerobic reduction of paraquat by NOS1 at 600 nm; Hanes plot; assay type: biochemical
Procedure: Anaerobic reduction of paraquat by NOS1 to paraquat.^+ was followed at 600 nm spectrophotometrically and converted to a concentration using the extinction coefficient E600 =13,700 M^-1 cm^-1. Reactions (1 ml) were performed in the NADPH oxidation buffer described above in the absence of L-arginine, dithiothreitol and tetrahydrobiopterin. Reactions were initiated by the addition of 2 U of NOS1 and followed for 3 minutes at 37° C.

[2] = molecular target: T1, Recombinant rat neuronal nitric oxide synthase (NOS1) (Rattus norvegicus, UniProt P29476); experiment: NO formation by NOS1, total nitrite and nitrate (colorimetric); assay type: biochemical
T1 construct: purchased Oxis, Portland, Oreg
T1 sequence (P29476 whole entry): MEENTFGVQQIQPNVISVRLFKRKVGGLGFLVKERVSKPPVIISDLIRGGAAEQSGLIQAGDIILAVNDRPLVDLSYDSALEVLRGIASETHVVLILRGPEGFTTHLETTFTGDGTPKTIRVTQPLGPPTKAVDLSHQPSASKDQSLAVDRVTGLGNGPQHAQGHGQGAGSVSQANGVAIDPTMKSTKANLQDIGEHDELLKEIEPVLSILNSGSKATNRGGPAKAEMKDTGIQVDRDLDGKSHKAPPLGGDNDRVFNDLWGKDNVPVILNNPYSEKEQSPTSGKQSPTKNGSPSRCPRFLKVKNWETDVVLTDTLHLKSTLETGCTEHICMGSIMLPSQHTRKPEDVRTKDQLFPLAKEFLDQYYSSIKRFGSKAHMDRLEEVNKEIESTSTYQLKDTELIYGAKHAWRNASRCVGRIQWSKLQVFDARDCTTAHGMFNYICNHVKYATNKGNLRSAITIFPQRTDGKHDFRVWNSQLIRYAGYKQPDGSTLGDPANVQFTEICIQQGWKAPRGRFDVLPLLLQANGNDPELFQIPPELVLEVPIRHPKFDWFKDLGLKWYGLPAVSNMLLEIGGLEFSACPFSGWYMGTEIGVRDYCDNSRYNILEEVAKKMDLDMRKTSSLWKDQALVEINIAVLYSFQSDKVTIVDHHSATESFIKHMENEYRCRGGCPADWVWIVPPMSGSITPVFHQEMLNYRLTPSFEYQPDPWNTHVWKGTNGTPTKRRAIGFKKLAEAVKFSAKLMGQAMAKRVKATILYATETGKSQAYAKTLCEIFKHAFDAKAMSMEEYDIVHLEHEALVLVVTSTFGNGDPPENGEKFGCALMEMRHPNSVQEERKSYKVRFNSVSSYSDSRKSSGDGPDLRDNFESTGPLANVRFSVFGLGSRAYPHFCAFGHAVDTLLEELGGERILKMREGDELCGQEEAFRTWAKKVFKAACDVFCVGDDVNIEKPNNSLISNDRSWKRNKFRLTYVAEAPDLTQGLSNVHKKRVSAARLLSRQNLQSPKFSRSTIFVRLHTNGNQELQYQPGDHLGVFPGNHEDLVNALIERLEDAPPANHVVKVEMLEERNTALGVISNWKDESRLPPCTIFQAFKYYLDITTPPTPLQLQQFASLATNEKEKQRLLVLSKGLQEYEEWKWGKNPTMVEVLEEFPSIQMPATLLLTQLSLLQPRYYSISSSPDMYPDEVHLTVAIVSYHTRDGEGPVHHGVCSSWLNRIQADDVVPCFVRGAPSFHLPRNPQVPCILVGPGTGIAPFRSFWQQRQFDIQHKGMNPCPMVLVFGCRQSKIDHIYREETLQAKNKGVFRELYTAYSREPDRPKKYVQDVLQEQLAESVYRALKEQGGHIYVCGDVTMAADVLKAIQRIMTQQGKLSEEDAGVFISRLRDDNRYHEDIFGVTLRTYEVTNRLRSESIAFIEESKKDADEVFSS
Procedure: Recombinant rat neuronal nitric oxide synthase (NOS1, Oxis, Portland, Oreg.), a constitutive enzyme, was used to assay NADPH oxidation in the presence of increasing concentrations of paraquat. Reactions (0.2 ml) were performed in bis-tris propane buffer (40 mM) containing L-arginine (1 mM), CaCl2 (1.2 mM), EDTA (0.9 mM), NADPH (0.35 mM), dithiothreitol (3 mM), tetrahydrobiopterin (4 μM), catalase (1 μg/ml) and calmodulin (200 U/ml) at pH 7.4. Reactions were initiated by the addition of 1.5 U of NOS1, and the oxidation of NADPH was continuously monitored at 340 nm for 1 minute at 37° C. in a plate reader. The rate of NOS-mediated NADPH oxidation was determined using an extinction coefficient of 6.22 mM^-1 cm^-1 after subtracting the baseline of NADPH oxidation.
The same microtiter plates used above were left at room temperature for 5 hours and then an aliquot was assayed for total nitrite and nitrate. Nitrite and nitrate were assayed using a non-enzymatic colorimetric kit (NB-88, Oxford Biomedical Research, Oxford, Mich.). NADPH oxidation was stopped after 5 hours by addition of 25 μl of zinc sulfate (30% w/v) to precipitate the NOS protein. Nitrate was non-enzymatically converted to nitrite by overnight incubation of 150 μl of reaction mixture from the NADPH oxidation assay with cadmium beads. Nitrite concentration was determined from a standard curve using 100 μl sample or standard. As shown FIG. 1(b), the formation of NO was inhibited by paraquat.

[3] = system: RAW-264.7 monocyte macrophage cells; experiment: LDH release from macrophages (cytotoxicity); assay type: cell-based
Procedure: as §2, §1
Cell injury was assessed by measuring LDH release.
as §3

Structure (SMILES): C[n+]1ccc(-c2cc[n+](C)cc2)cc1 [paraquat]
- nitrotyrosine staining (nitrotyrosine): A decrease in nitrotyrosine staining
- formation of NO metabolites from DETA NONOate ([1]; FIG. 4(d)): does not alter the formation of NO metabolites from DETA NONOate
- percent decrease in nitrite and nitrate compared with percent increase in cell death ([1]; cytomix-activated): percent decrease in nitrite and nitrate was greater than percent increase in cell death
- NO production (nitrite and nitrate) ([1]; cytomix-activated, FIG. 4(b)): significantly attenuated NO production
- tumor regression (solid tumor): tumor regresses and is not longer detectable
- effect on exogenously added NO-induced relaxation (Rabbit aortic rings): did not inhibit exogenously added NO-induced relaxation
- adverse effect (squamous cell carcinoma): complicating oral ulcerations
- tumor regression (squamous cell carcinoma; seven days): tumor is found to have regressed
- paraquat reductase activity (Hanes plot) (rat NOS1; FIG. 1(d)): increased paraquat reduction with increasing paraquat concentration
- reduction of paraquat to its cation radical (600 nm) (rat NOS1; anaerobic, without L-arginine, 37° C., 3 minutes, FIG. 1(c)): direct and progressive reduction of paraquat to its cation radical
- NO formation (accumulation of nitrite and nitrate) ([2]; FIG. 1(b), 5 hours at room temperature): concentration dependent decrease in NO formation
- IC50 ([2]; concentration that inhibited NO formation by 50%, 95% confidence level 47-82 μM, 5 hours, read-out: IC50, inhibition of NO formation): 62 µM
- NOS activity ([2]; conclusion of Background Example 1): inhibits NOS activity
- cell injury (LDH release), single treatment ([3]; 0.1 mM paraquat or cytomix alone, 24 hours, FIG. 4(a)): very little cell injury
- paraquat-induced cytotoxicity in activated macrophages ([3]; 0.1 mM paraquat plus cytomix, 24 hours, FIG. 4(a)): potentiated in cytokine-activated macrophages
- effect of paraquat on DETA NONOate-induced cell injury ([3]; 0.1 mM paraquat, higher DETA NONOate concentrations, 24 hours, FIG. 4(c)): DETA NONOate-induced cell injury was attenuated by paraquat
- cell killing / amelioration of toxicity, conclusion ([3]; conclusion of Background Example 4): kills cells containing NOS but not cells that do not
